Consider 46 molecules from US6310095A, “Inhibitors of protein isoprenyl transferases” (University of Pittsburgh, priority 1998, dated 2001).

Where a name gives a salt, the structure may show the parent alone.

The target in one assay is T1, protein farnesyltransferase (Rattus norvegicus, UniProt Q02293+Q04631).
T1 construct: Rat brain protein farnesyltransferase activity is measured; from tissue; host or cells: rat brain; purified according to Reiss et al., Cell 62:81-88 (1990), steps one through three
Description: in vitro inhibition of protein farnesyltransferase (scintillation proximity assay, biotin-K Ras B fragment). In kind it is biochemical. The conditions noted are these: at 1 × 10^-5 M. The method, boiled down:
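Scintillation proximity read-out of farnesylation, using a biotinylated K Ras B fragment (0.1 mM final) in place of biotin-lamin. Enzyme purified from rat brain; results given as % inhibition.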
(In general: SPA uses beads or plates that emit light when radiolabelled molecules are held near them.)
`CSCC[C@H](NC(=O)c1ccc(CNC(CO)C(O)c2ccccc2)cc1-c1ccccc1)C(=O)O` (stereo partly shown) [Example 713] showed an inhibition at 10 µM of 40%.

Turning to `Cc1ccccc1-c1cc(CN(Cc2ccccc2)c2cccnc2)ccc1C(=O)N[C@@H](CCS(C)(=O)=O)C(=O)O` [Example 759, (2S)-2-N-[4-(N-benzyl-N-3-pyridylaminomethyl)-2-(2-methylphenyl)benzoyl]amino-4-methanesulfonylbutanoic acid], the inhibition at 10 µM came out at 49%.

On to `CSCC[C@H](NC(=O)c1ccc(CNc2cccc(O)c2)cc1-c1ccccc1)C(=O)O` [Example 676], for which the inhibition at 10 µM was 76%.

For `CSCC[C@H](NC(=O)c1ccc(NC(=O)Cc2ccccc2[N+](=O)[O-])cc1-c1ccccc1)C(=O)O` [Example 757], the inhibition at 10 µM was 58%.

For `CSCC[C@H](NC(=O)c1ccc(CNc2ccc(O)cc2)cc1-c1ccccc1)C(=O)O` [Example 689], testing at 10 µM gave an inhibition of 73%.

As to `CSCC[C@H](NC(=O)c1ccc(CNc2cc(C(C)(C)C)[nH]n2)cc1-c1ccccc1)C(=O)O` [Example 381], the inhibition at 10 µM was found to be 79%.

`CSCC[C@H](NC(=O)c1ccc(CNc2cc(C(=O)O)cc(C(=O)O)c2)cc1-c1ccccc1)C(=O)O` [Example 710] came in with an inhibition at 10 µM of 45%.

The molecule `CSCC[C@H](NC(=O)c1ccc(CNc2ccc(C)c(C)c2)cc1-c1ccccc1)C(=O)O` [Example 704] registered an inhibition at 10 µM of 67%.

Still in this assay, the particulars now being: at 1 × 10^-6 M.
Take `CSCC[C@H](NC(=O)c1cc(Cc2ccccc2)c(COCc2ccco2)cc1-c1ccccc1C)C(=O)O` [Example 924]: the “% inhibition of farnesyltransferase” value stood at 77%.

Regarding `CSCC[C@H](NC(=O)c1ccc(-c2ccc(-c3ccccc3)cc2)cc1-c1ccccc1C)C(=O)[O-].[Li+]` [Example 788], the “% inhibition of farnesyltransferase” value is 44%.

With `CSCC[C@H](NC(=O)c1ccc(CN2CCCC(OCc3ccccc3)C2)cc1-c1ccccc1C)C(=O)O` (stereo partly shown) [Example 989], the “% inhibition of farnesyltransferase” value was 88%.

For the molecule `CSCC[C@H](NC(=O)c1ccc(/C=C/c2ccc(Oc3ccccc3)nn2)cc1-c1ccccc1C)C(=O)O` [Example 810], the “% inhibition of farnesyltransferase” value is listed as 89%.

With `CSCC[C@H](NC(=O)c1ccc(SCCc2ccccc2)cc1-c1ccccc1C)C(=O)O` [Example 498], the “% inhibition of farnesyltransferase” value is 98%.

With `CSCC[C@H](NC(=O)c1ccc(OCCCc2ccccc2)cc1-c1ccccc1C)C(=O)[O-].[Li+]` [Example 879], the “% inhibition of farnesyltransferase” value amounted to 95%.

In the case of `CSCC[C@H](NC(=O)c1ccc(CSCc2ccccc2)cc1-c1ccccc1C)C(=O)[O-].[Li+]` [Example 554], the “% inhibition of farnesyltransferase” value is 96%.

For the molecule `CSCC[C@H](NC(=O)c1ccc(COC2CCN(Cc3ccccc3)C2)cc1-c1ccccc1C)C(=O)O` (stereo partly shown) [Example 987], the “% inhibition of farnesyltransferase” value is given as 93%.

As for `CSCC[C@H](NC(=O)c1ccc(OCCCCOc2ccccc2)cc1-c1ccccc1C)C(=O)O` [Example 568], the “% inhibition of farnesyltransferase” value is 93%.

In the case of `CSCC[C@H](NC(=O)c1ccc(/C=C/c2ccc3ccccc3c2)cc1-c1ccccc1C)C(=O)O` [Example 465], the “% inhibition of farnesyltransferase” value is 92%.

Regarding `CSCCC(NC(=O)c1ccc(CNC(CO)c2ccccc2)cc1-c1ccccc1)C(=O)O` (stereo not shown) [Example 657], the “% inhibition of farnesyltransferase” value worked out at 32%.

For the molecule `Cc1ccccc1-c1cc(CN(C)C(C)(C)CC2CCCCC2)ccc1C(=O)N[C@@H](CCS(C)(=O)=O)C(=O)O` [Example 314], the “% inhibition of farnesyltransferase” value was 97%.

With `CSCC[C@H](NC(=O)c1ccc(CSc2nc(O)cc(Cc3ccccc3)n2)cc1-c1ccccc1C)C(=O)O` [Example 744], the “% inhibition of farnesyltransferase” value amounted to 84%.

Still in this assay, the particulars now being: at 1 × 10^-6 M; read-out: % inhibition of farnesyltransferase.
Take `CSCC[C@H](NC(=O)c1ccc(CN(CCc2ccccc2)c2ccccc2)cc1-c1ccccc1C)C(=O)O` [Example 507]: the inhibition at 1 µM was 96%.

Take `CSCC[C@H](NC(=O)c1ccc(NCC(CO)CC2CCCCC2)cc1-c1ccccc1C)C(=O)O` (stereo partly shown) [Example 479, N-[4-N-(2-cyclohexylmethyl-3-hydroxypropyl)amino-2-(2-methylphenyl)benzoyl]methionine]: the inhibition at 1 µM came out at 95%.

Take `CSCC[C@H](NC(=O)c1ccc(CNc2ccc(OC(F)(F)F)cc2)cc1-c1ccccc1)C(=O)O` [Example 691]: the inhibition at 1 µM amounted to 34%.

`CSCC[C@H](NC(=O)c1ccc(NCC(CO)(Cc2ccccc2)Cc2ccccc2)cc1-c1ccccc1C)C(=O)O` [Example 475, N-[4-N-(2,2-dibenzyl-3-hydroxypropyl)amino-2-(2-methylphenyl)benzoyl]methionine sodium salt]: the inhibition at 1 µM was determined as 21%.

Consider `CCOC(=O)c1ccc(NCc2ccc(C(=O)N[C@@H](CCSC)C(=O)O)c(-c3ccccc3)c2)cc1` [Example 646], for which the inhibition at 1 µM came to 58%.

Regarding `CSCC[C@H](NC(=O)c1ccc(NC(=O)OCCCl)cc1-c1ccccc1)C(=O)O` [Example 979, N-[4-(N-2-chloroethoxycarbonyl)amino-2-phenylbenzoyl]methionine], the inhibition at 1 µM was determined as 26%.

The same assay, now with this note: at 1 × 10^-7 M.
As for `CSCC[C@H](NC(=O)c1ccc(COC2CCC(NC(=O)OC(C)(C)C)CC2)cc1-c1ccccc1C)C(=O)[O-].[Li+]` (stereo partly shown) [Example 817], the “% inhibition of farnesyltransferase” value is 60%.

Consider `CSCC[C@H](NC(=O)c1ccc(COCc2ccc(-c3ccc(F)cc3)o2)cc1-c1ccc(F)cc1Cl)C(=O)[O-].[Li+]` [Example 869], for which the “% inhibition of farnesyltransferase” value stood at 92%.

With `CSCC[C@H](NC(=O)c1ccc(CCc2ccccc2Oc2ccccc2)cc1-c1ccccc1C)C(=O)[O-].[Li+]` [Example 455], the “% inhibition of farnesyltransferase” value was found to be 83%.

Regarding `CSCC[C@H](NC(=O)c1ccc(CSc2ccc(F)cc2)cc1-c1ccccc1C)C(=O)O` [Example 740], the “% inhibition of farnesyltransferase” value worked out at 94%.

For `CSCC[C@H](NC(=O)c1ccc(COCC2CCC(c3ccc(Cl)cc3)O2)cc1-c1ccccc1C)C(=O)O` (stereo partly shown) [Example 822], the “% inhibition of farnesyltransferase” value is reported as 93%.

Still in this assay, the particulars now being: at 1 × 10^-7 M; read-out: % inhibition of farnesyltransferase.
Consider `CCS(=O)(=O)C[C@H](CC1CCCCC1)NCc1ccc(C(=O)N[C@@H](CCS(C)(=O)=O)C(=O)O)c(-c2ccccc2C)c1` [Example 621, N-[4-(3-cyclohexyl-1-ethylsulfonylpropan-2-ylaminomethyl)-2-(2-methylphenyl)benzoyl]-2-amino-4-methanesulfonylbutanoic acid Lithium Salt], for which the inhibition at 0.1 µM was found to be 98%.

For the molecule `CSCC[C@H](NC(=O)c1ccc(CNCCc2c[nH]c3ccccc23)cc1-c1ccccc1C)C(=O)O` [Example 519, N-[4-N-(2-indol-3-ylethyl)aminomethyl-2-(2-methylphenyl)benzoyl]methionine lithium salt], the inhibition at 0.1 µM was 89%.

Consider `CSCC[C@H](NC(=O)c1ccc(CN[C@H](CO)C2CCCCC2)cc1-c1ccccc1C)C(=O)O` [Example 520, N-[4-N-(2-cyclohexyl-1-ethan-1-ol-2-yl)aminomethyl-2-(2-methylphenyl)benzoyl]methionine lithium salt], for which the inhibition at 0.1 µM is 97%.

In the case of `CCSC[C@H](CC(C)C)N(C)Cc1ccc(C(=O)N[C@@H](CCSC)C(=O)O)c(-c2ccccc2C)c1` [Example 906, N-[4-(N-(1-ethylthio-4-methylpentan-2-yl)-N-methylaminomethyl)-2-(2-methylphenyl)benzoyl]-methionine], the inhibition at 0.1 µM turned out to be 88%.

As for `CSCC[C@H](NC(=O)c1ccc(CNCC(=O)N(Cc2ccccc2)Cc2ccccc2)cc1-c1ccccc1C)C(=O)O` [Example 914, N-[4-(N-(N,N-dibenzylacetamido)aminomethyl)-2-(2-methylphenyl)benzoyl]methionine], the inhibition at 0.1 µM amounted to 91%.

Staying with this assay, now noted: at 1 × 10^-8 M.
As for `CSCC[C@H](NC(=O)c1ccc(COCc2cccc(C(C)C)c2)cc1-c1ccccc1C)C(=O)[O-].[Li+]` [Example 939], the “% inhibition of farnesyltransferase” value was found to be 72%.

Take `CSCC[C@H](NC(=O)c1ccc(COCc2cnc(-c3ccccc3Cl)s2)cc1-c1ccccc1C)C(=O)[O-].[Li+]` [Example 897]: the “% inhibition of farnesyltransferase” value came to 76%.

As for `CSCC[C@H](NC(=O)c1ccc(CN2CCC[C@H]2COc2ccccc2)cc1-c1ccccc1C)C(=O)O` [Example 991], the “% inhibition of farnesyltransferase” value stood at 69%.

Take `CSCC[C@H](NC(=O)c1ccc(COCc2occc2-c2ccc(Cl)cc2)cc1-c1ccccc1C)C(=O)[O-].[Li+]` [Example 827]: the “% inhibition of farnesyltransferase” value was 77%.

Staying with this assay, now noted: at 1 × 10^-8 M; read-out: % inhibition of farnesyltransferase.
For `COc1cccc(CN(Cc2ccc(C(=O)N[C@@H](CCSC)C(=O)O)c(-c3ccccc3C)c2)c2ccccc2)c1` [Example 779, N-[4-N-(N-phenyl-N-(3-methoxybenzyl)aniinomethyl)-2-(2-methylphenyl)benzoyl]methionine lithium salt], the inhibition at 0.01 µM turned out to be 70%.

On to `C=C[C@H](CC1CCCCC1)NCc1ccc(C(=O)N[C@@H](CCSC)C(=O)O)c(-c2ccccc2C)c1` [Example 619, N-[4-(2-cyclohexylprop-1-en-2-ylaminomethyl)-2-(2-methylphenyl)benzoyl]methionine Lithium Salt], for which the inhibition at 0.01 µM is 95%.

In the case of `CSCC[C@H](NC(=O)c1ccc(CN(Cc2ccccc2)c2ccc(C(F)(F)F)cc2)cc1-c1ccccc1C)C(=O)O` [Example 853, N-[4-(N-benzyl-N-(4-trifluoromethylphenyl)aminomethvl)-2-(2-methylphenyl)benzoyl]methionine lithium salt], the inhibition at 0.01 µM came out at 85%.

In the case of `CSCC[C@H](NC(=O)c1ccc(CN(CCC2CCCCC2)C(=O)c2ccccc2)cc1-c1ccccc1C)C(=O)O` [Example 762, N-[4-N-Benzoyl-N-2-cyclohexylethylaminomethyl-2-(2-methylphenyl)benzoyl]methionine lithium salt], the inhibition at 0.01 µM turned out to be 84%.

For `CCCCS(=O)(=O)N(Cc1ccc(C(=O)N[C@@H](CCSC)C(=O)O)c(-c2ccccc2C)c1)CC1CCCCC1` [Example 996, N-[4-(N-cyclohexylmethyl-N-butanesulfonylaminomethyl)-2-(2-methylphenyl)benzoyl]methionine], the inhibition at 0.01 µM was determined as 80%.

As a reminder, the inhibition is the change of the read-out against control, counted positive when it falls.
